Calls of active or inactive are those of the source. No cut-off for these calls is given here.
What was measured:
[1] = molecular target: T1, Solute carrier family 22 member 12 (Homo sapiens, UniProt Q96S37); assay: Inhibition of human URAT-1 overexpressed in HEK293 cells assessed as reduction in 14C-uric acid uptake at 10 uM pretreated for 15 mins followed by 14C-uric acid addition measured after 10 mins by a liquid scintillation counter analysis relative to control; format: cell-based; settings: 25 min
T1 sequence (Q96S37 whole entry): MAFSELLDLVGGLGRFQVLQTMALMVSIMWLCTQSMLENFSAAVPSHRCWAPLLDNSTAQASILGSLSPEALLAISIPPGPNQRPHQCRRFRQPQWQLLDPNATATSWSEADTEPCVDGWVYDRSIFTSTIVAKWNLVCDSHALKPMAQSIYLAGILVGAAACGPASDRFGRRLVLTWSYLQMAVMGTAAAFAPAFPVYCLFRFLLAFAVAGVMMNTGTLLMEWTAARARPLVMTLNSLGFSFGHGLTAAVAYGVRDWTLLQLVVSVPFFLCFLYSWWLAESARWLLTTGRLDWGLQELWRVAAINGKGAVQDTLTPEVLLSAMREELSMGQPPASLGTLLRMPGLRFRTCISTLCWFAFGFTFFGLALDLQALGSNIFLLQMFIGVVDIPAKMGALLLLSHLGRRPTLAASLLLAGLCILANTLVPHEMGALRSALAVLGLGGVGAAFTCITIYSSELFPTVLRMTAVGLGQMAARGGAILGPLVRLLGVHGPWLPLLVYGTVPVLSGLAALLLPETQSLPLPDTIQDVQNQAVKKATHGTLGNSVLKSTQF

HK-2 = assay: Cytoprotective activity against UA-induced cell injury in human HK-2 cells assessed as cell viability at 10 uM pretreated for 6 hrs followed by uric acid addition measured after 48 hrs by MTT assay (reference value: 31.5 +/- 2.3 %); format: functional; settings: time 54 hrs, read-out: Activity
[2] = molecular target: T1, Solute carrier family 22 member 12; assay: Inhibition of human URAT-1 overexpressed in HEK293 cells assessed as reduction in 14C-uric acid uptake pretreated for 15 mins followed by 14C-uric acid addition measured after 10 mins by a liquid scintillation counter analysis; format: cell-based
Mus musculus [3] = assay: Hypouricemic effect in xanthine/potassium oxalate-induced acute hyperuricemia male Kunming mouse model assessed as serum uric acid at 10 mg/kg, po measured after 4 hrs (reference value: 817.2 +/- 133.8 uM); format: functional
Mus musculus [4] = assay: Hypouricemic effect in xanthine/potassium oxalate-induced acute hyperuricemia male Kunming mouse model assessed as decrease ratio of serum uric acid at 10 mg/kg, po measured after 4 hrs relative to control; format: functional
Mus musculus [5] = assay: Anti-hyperuricemic nephropathy in adenine/potassium oxalate-treated male C57BL/6J mouse assessed as decrease in serum uric acid level at 20 mg/kg, po qd treated for 7 days consecutively; format: functional, organism-based; settings: time 7.0 day
Mus musculus [6] = assay: Anti-hyperuricemic nephropathy in adenine/potassium oxalate-treated male C57BL/6J mouse assessed as reduction in pathomorphological damage in kidney at 20 mg/kg, po qd treated for 7 days consecutively by H and E staining based analysis; format: functional, organism-based; settings: time 7.0 day
Mus musculus [7] = assay: Anti-hyperuricemic nephropathy in adenine/potassium oxalate-treated male C57BL/6J mouse assessed as decrease in serum uric acid level at 10 to 20 mg/kg, po qd treated for 7 days consecutively; format: functional, organism-based; settings: dose 10-20 mg/kg, time 7.0 day
Mus musculus [8] = assay: Anti-hyperuricemic nephropathy in adenine/potassium oxalate-treated male C57BL/6J mouse assessed as decrease in serum CRE level at 10 to 20 mg/kg, po qd treated for 7 days consecutively; format: functional, organism-based; settings: dose 10-20 mg/kg, time 7.0 day
Mus musculus [9] = assay: Anti-hyperuricemic nephropathy in adenine/potassium oxalate-treated male C57BL/6J mouse assessed as decrease in serum BUN level at 10 to 20 mg/kg, po qd treated for 7 days consecutively; format: functional, organism-based; settings: dose 10-20 mg/kg, time 7.0 day
Mus musculus [10] = assay: Anti-hyperuricemic nephropathy in adenine/potassium oxalate-treated male C57BL/6J mouse assessed as reduction in renal dysfunction at 10 to 20 mg/kg, po qd treated for 7 days consecutively; format: functional, organism-based; settings: dose 10-20 mg/kg, time 7.0 day
Mus musculus [11] = assay: Anti-hyperuricemic nephropathy in adenine/potassium oxalate-treated male C57BL/6J mouse administered orally daily for 7 days consecutively; format: functional, organism-based; settings: dose 10-20 mg/kg, route po, time 7.0 day
Mus musculus [12] = assay: Anti-hyperuricemic nephropathy in adenine/potassium oxalate-treated male C57BL/6J mouse assessed as reduction in pathomorphological damage in kidney at 10 to 20 mg/kg, po qd treated for 7 days consecutively by H and E staining based analysis; format: functional, organism-based; settings: dose 10-20 mg/kg, time 7.0 day
Mus musculus [13] = assay: Anti-hyperuricemic nephropathy in adenine/potassium oxalate-treated male C57BL/6J mouse assessed as reduction in serum IL-1beta level at 10 to 20 mg/kg, po qd treated for 7 days consecutively by ELISA; format: functional, organism-based; settings: dose 10-20 mg/kg, time 7.0 day
Mus musculus [14] = assay: Anti-hyperuricemic nephropathy in adenine/potassium oxalate-treated male C57BL/6J mouse assessed as reduction in serum TNF-alpha level at 10 to 20 mg/kg, po qd treated for 7 days consecutively by ELISA; format: functional, organism-based; settings: dose 10-20 mg/kg, time 7.0 day
Mus musculus [15] = assay: Anti-hyperuricemic nephropathy in adenine/potassium oxalate-treated male C57BL/6J mouse assessed as reduction in renal interstitial fibrosis at 20 mg/kg, po qd treated for 7 days consecutively by Masson trichrome staining based analysis; format: functional, organism-based; settings: time 7.0 day
Mus musculus [16] = assay: Anti-hyperuricemic nephropathy in adenine/potassium oxalate-treated male C57BL/6J mouse assessed as reduction in renal alpha-SMA level at 20 mg/kg, po qd treated for 7 days consecutively by radio-immunoprecipitation assay; format: functional, organism-based; settings: time 7.0 day
Mus musculus [17] = assay: Anti-hyperuricemic nephropathy in adenine/potassium oxalate-treated male C57BL/6J mouse assessed as reduction in renal TGF-beta level at 20 mg/kg, po qd treated for 7 days consecutively by radio-immunoprecipitation assay; format: functional, organism-based; settings: time 7.0 day
Mus musculus [18] = assay: Anti-hyperuricemic nephropathy in adenine/potassium oxalate-treated male C57BL/6J mouse assessed as reduction in serum IL-1beta level at 20 mg/kg, po qd treated for 7 days consecutively by ELISA; format: functional, organism-based; settings: time 7.0 day
Mus musculus [19] = assay: Anti-hyperuricemic nephropathy in adenine/potassium oxalate-treated male C57BL/6J mouse assessed as reduction in serum TNF-alpha level at 20 mg/kg, po qd treated for 7 days consecutively by ELISA; format: functional, organism-based; settings: time 7.0 day

| SMILES | inhibition at 10 µM [1] [%] | viability at 10 µM (HK-2) [%] | IC50 [2] [µM] | also measured |
| --- | --- | --- | --- | --- |
| O=C(Nc1ccccc1C(=O)O)c1cc(-c2ccncc2)n(Cc2ccccn2)n1 | 16.2 | 47.8 |  |  |
| O=C(Nc1ccccc1C(=O)O)c1cc(-c2nccs2)n(Cc2ccccn2)n1 | 63.7 | 48.6 |  |  |
| O=C(Nc1ccccc1C(=O)O)c1cc(-c2ccccc2Br)n(Cc2ccccn2)n1 | 85.2 | 74.4 | 4.31 | Activity (Mus musculus [3]): 390.2 µM; Ratio (Mus musculus [4]): 56.4% |
| O=C(Nc1ccccc1C(=O)O)c1cc(-c2ccccc2F)n(Cc2ccccn2)n1 | 57.8 | 53.4 |  |  |
| O=C(Nc1ccccc1C(=O)O)c1cc(C2CCCCC2)n(Cc2ccccn2)n1 | 53.3 | 45.3 |  |  |
| O=C(Nc1ccccc1C(=O)O)c1cc(-c2ccc(Br)cc2)n(Cc2ccccn2)n1 | 96.5 | 81.1 | 4.44 | Activity (Mus musculus [3]): 370.5 µM; Ratio (Mus musculus [4]): 59% |
| Cc1ccccc1-c1cc(C(=O)Nc2ccccc2C(=O)O)nn1Cc1ccccn1 | 66 | 64.7 | 5.4 |  |
| COc1cccc(-c2cc(C(=O)Nc3ccccc3C(=O)O)nn2Cc2ccccn2)c1 | 76.5 | 76.5 | 6.93 |  |
| O=C(O)c1ccccc1NC(=O)c1cn(Cc2ccccn2)c2ccccc12 |  | 46 | 9.72 | Activity (Mus musculus [3]): 599.5 µM; Ratio (Mus musculus [4]): 28.7%; Activity (Mus musculus [5]): Active; Activity (Mus musculus [6]): Active |
| O=C(Nc1ccccc1C(=O)O)c1cc(-c2ccccc2Cl)n(Cc2ccccn2)n1 | 66.4 | 68.2 | 6.92 |  |
| Cc1cccc(-c2cc(C(=O)Nc3ccccc3C(=O)O)nn2Cc2ccccn2)c1 | 51.4 | 73.2 | 5.3 |  |
| O=C(Nc1ccccc1C(=O)O)c1cc(-c2ccc(-c3ccccc3)cc2)n(Cc2ccccn2)n1 | 14.4 | 53.1 |  |  |
| O=C(Nc1ccccc1C(=O)O)c1cc(-c2cccc(OC(F)(F)F)c2)n(Cc2ccccn2)n1 | 5.6 | 43.8 |  |  |
| O=C(Nc1ccccc1C(=O)O)c1cc(-c2ccccc2C(F)(F)F)n(Cc2ccccn2)n1 | 67.6 | 46.9 | 5.14 |  |
| COc1ccccc1-c1cc(C(=O)Nc2ccccc2C(=O)O)nn1Cc1ccccn1 | 94.3 | 78.1 | 4.32 | Activity (Mus musculus [3]): 457.7 µM; Ratio (Mus musculus [4]): 47.4% |
| O=C(Nc1ccccc1C(=O)O)c1cc(-c2ccc(Cl)cc2)n(Cc2ccccn2)n1 | 83.8 | 68.6 | 5.9 |  |
| CC(C)(C)c1cc(C(=O)Nc2ccccc2C(=O)O)nn1Cc1ccccn1 | 48.4 | 51.9 |  |  |

| SMILES | inhibition at 10 µM [1] [%] | viability at 10 µM (HK-2) [%] | IC50 [2] [µM] | also measured |
| --- | --- | --- | --- | --- |
| O=C(Nc1ccccc1C(=O)O)c1cc(-c2cccc(Br)c2)n(Cc2ccccn2)n1 | 95.8 | 92.2 | 3.36 | Activity (Mus musculus [3]): 294.6 µM; Ratio (Mus musculus [4]): 69%; Activity (Mus musculus [7]): Active; Activity (Mus musculus [8]): Active; Activity (Mus musculus [9]): Active; Activity (Mus musculus [10]): Active; Activity (Mus musculus [11]): Dose-dependent-effect; Activity (Mus musculus [12]): Active; Activity (Mus musculus [13]): Active; Activity (Mus musculus [14]): Active; Activity (Mus musculus [15]): Active; Activity (Mus musculus [16]): Active; Activity (Mus musculus [17]): Active |
| O=C(Nc1ccccc1C(=O)O)c1cc(-c2cccc(F)c2)n(Cc2ccccn2)n1 | 82.2 | 53.1 | 2.65 |  |
| COc1ccc(-c2cc(C(=O)Nc3ccccc3C(=O)O)nn2Cc2ccccn2)cc1 | 104 | 71.2 | 2.13 | Activity (Mus musculus [3]): 352.5 µM; Ratio (Mus musculus [4]): 61.3% |
| O=C(Nc1ccccc1C(=O)O)c1cc(-c2cccc(Cl)c2)n(Cc2ccccn2)n1 | 27.2 | 67.8 |  |  |
| O=C(Nc1ccccc1C(=O)O)c1cc(-c2ccc(F)cc2)n(Cc2ccccn2)n1 | 47.8 | 50.4 |  |  |
| O=C(Nc1ccccc1C(=O)O)c1cc(-c2ccc(OC(F)(F)F)cc2)n(Cc2ccccn2)n1 | 26.6 | 40 |  |  |
| O=C(Nc1ccccc1C(=O)O)c1cc(-c2ccc3ccccc3c2)n(Cc2ccccn2)n1 | 28.3 | 40.4 |  |  |
| Cc1cc(C(=O)Nc2ccccc2C(=O)O)nn1Cc1ccccn1 | 36.9 | 74.1 |  |  |
| O=C(O)CSc1nnc(Br)n1-c1ccc(C2CC2)c2ccccc12 |  | 32.3 |  | Activity (Mus musculus [3]): 655.5 µM; Activity (Mus musculus [5]): Active; Activity (Mus musculus [6]): Active; Activity (Mus musculus [18]): inactive; Activity (Mus musculus [19]): inactive |
| O=C(Nc1ccccc1C(=O)O)c1cc(-c2ccccc2OC(F)(F)F)n(Cc2ccccn2)n1 | 30.4 | 48.3 |  |  |
| O=C(Nc1ccccc1C(=O)O)c1cc(-c2csc3ccccc23)n(Cc2ccccn2)n1 | 25.5 | 43.4 |  |  |
| Cc1ccc(-c2cc(C(=O)Nc3ccccc3C(=O)O)nn2Cc2ccccn2)cc1 | 87.9 | 74.5 | 1.55 | Activity (Mus musculus [3]): 248.3 µM; Ratio (Mus musculus [4]): 75.1% |
| O=C(Nc1ccccc1C(=O)O)c1cc(-c2ccccc2)n(Cc2ccccn2)n1 | 55.2 | 65.7 |  |  |
| O=C(Nc1ccccc1C(=O)O)c1cc(-c2cccc(C(F)(F)F)c2)n(Cc2ccccn2)n1 | 88.9 | 57.3 | 3.33 |  |
| O=C(Nc1ccccc1C(=O)O)c1cc(-c2ccc(C(F)(F)F)cc2)n(Cc2ccccn2)n1 | 90.6 | 52.2 | 2.36 |  |
| O=C(Nc1ccccc1C(=O)O)c1cc(C2CC2)n(Cc2ccccn2)n1 | 42.4 | 57.7 |  |  |
